Test results published in patent US11311524B2, “Pharmaceutical composition used for treatment of HTLV-1-associated myelopathy” (DAIICHI SANKYO COMPANY, LIMITED, priority 2017, dated 2022).

How the values were obtained:
[1] = test system: HAM patient-derived PBMC; assay: Autoproliferation (3H-thymidine incorporation) of HAM patient-derived PBMC without stimulation; assay type: cell-based, human; conditions: for GI50: Homo sapiens, PBMC of 8 HAM patients, 6 days culture, 3H-thymidine, read-out: GI50, autoproliferation activity of HAM patient-derived PBMC; for Suppression of autoproliferation activity of HAM patient-derived PBMC: no stimulation, relative to DMSO group
Experimental: PBMC taken from 8 HAM patients were suspended in culture mediums (RPMI1640 culture medium (wako) containing 10% FBS (GIBCO)), seeded in a 96-well round-bottom plate in a ratio of 1×10^5 cells per well (3 wells were used for each concentration), and compound A or compound B was added so as to provide a final concentration of 1, 10, 100 or 1000 nM. Culture was carried out at 37° C. in 5% CO2 conditions for 6 days. The DMSO treatment group and the PSL (1 μg/mL) treatment group were used as controls. Day 6 after initiation of culture, 1 μCi ^3H-thymidine was added to each well and culture was carried out at 37° C., in 5% CO2 conditions for 16 hours. Thereafter, the cultured cells were allowed to adsorb to a glass filter (Printed Filtermat A, PerkinElmer) by a cell harvester (Tomtec MH3, PerkinElmer), dried and impregnated with solid scintillator Meltilex-A (PerkinElmer). The amount of the ^3H-thymidine incorporated in the cells was measured by use of MicroBeta (WALLAC MicroBeta TriLux 1450-021) (Yamano et al., PLoS One. 2009, 4(8): e6517). Based on the average count of ^3H-thymidine in the DMSO treatment group of HAM patients' PBMC as 100%, the relative values of the groups treated with compound A, compound B and PSL (1 μg/mL) were obtained by calculation, and then, an average value of 8 HAM patient cases was obtained. A significance test was carried out in accordance with the Friedman test of GraphPad Prism6 (MDF).
The number of patients was increased to 16 and the same experiment as above was carried out.
Effect on HAM patient-derived PBMC was checked in the same manner as in the above Example except that an EZH2 inhibitor was used in place of compounds A and B.
As the EZH2 inhibitor, GSK126 (CAS No.: 1346574-57-9) and E7438 (CAS No.: 1403254-99-8) were used. The concentration for treatment was 1, 10, 100, 1000 or 10000 nM in terms of final concentration. In the experiment, PBMC samples taken from the 8 persons before the number of cases increased in the above were used.

[2] = test system: HTLV-1 infected cells in HAM patient's PBMC; assay: HTLV-1 pro-viral load (infected cell rate) in HAM patient-derived PBMC by real time PCR; assay type: cell-based, human; conditions: PSL 1 μg/ml control, this experimental system or clinical sites
Experimental: PBMC taken from 8 HAM patients were suspended in a culture medium (RPMI1640 culture medium containing 10% FBS) and seeded in a 48-well plate in a ratio of 5×10^5 cells per well, and compound A or compound B was added so as to provide a final concentration of 1, 10, 100 or 1000 nM. The culture solution of 0.5 mL in total was cultured at 37° C. in 5% CO2 conditions for 12 days. A group treated with DMSO and a group treated with PSL (1 μg/mL) were used as controls. Day 12 after initiation of culture, the culture solution was centrifuged, and thereafter, the cell suspension was recovered from each of the cultures carried out under different conditions and centrifuged. After the supernatant was removed, the cell pellet was subjected to genomic DNA extraction. The genome DNA extracted was subjected to real time PCR to measure HTLV-1 pro-viral load (infected cell rate) (Yamano et al., Blood. 2002, 99 (1): 88-94). Based on the HTLV-1 pro-viral load in cells, which were obtained by adding DMSO to each of the HAM patient's PBMC and culturing the PBMC, as 100%, the relative value of HTLV-1 pro-viral load in a group treated with compound A, compound B or PSL was calculated, and then, an average value of 8 HAM patient cases was obtained. The significance test was carried out by using the Friedman test of GraphPad Prism6 (MDF).

Structure (SMILES) | GI50 [1] [nM] | Suppression of autoproliferation activity of HAM patient-derived PBMC [1] | Infected cell removal activity [2]
CCN(c1cc(-c2ccc(CN3CCOCC3)cc2)cc(C(=O)NCc2c(C)cc(C)[nH]c2=O)c1C)C1CCOCC1 [E7438, N-((4,6-Dimethyl-2-oxo-1,2-dihydropyridin-3-yl)methyl)-5-(ethyl(tetrahydro-2H-piran-4-yl)amino)-4-methyl-4′-(morpholinomethyl)-[1,1′-biphenyl]-3-carboxamide, reference compound] | 214 | suppress autoproliferation activity | 
CC[C@H](C)n1cc(C)c2c(C(=O)NCc3c(C)cc(C)[nH]c3=O)cc(-c3ccc(N4CCNCC4)nc3)cc21 [GSK126, N-[(1,2-Dihydro-4,6-dimethyl-2-oxo-3-pyridinyl)methyl]-3-methyl-1-[(1S)-1-methylpropyl]-6-[6-(1-piperazinyl)-3-pyridinyl]-1H-indole-4-carboxamide, reference compound] | 724 | suppress autoproliferation activity | 
C[C@]12C=CC(=O)C=C1CC[C@@H]1[C@@H]2[C@@H](O)C[C@@]2(C)[C@H]1CC[C@]2(O)C(=O)CO [PSL, prednisolone, reference compound] |  | can suppress autoproliferation activity | does not exhibit infected cell removal activity
